Assay results taken from patent publication US9108937B2 (Merck Sharp & Dohme Corp., priority 2010, dated 2015).

biological target: T1, human mGluR2 (Homo sapiens, UniProt Q14416); assay: FLIPR Ca2+ mobilization assay, potentiation of glutamate response; type: cell-based; conditions: CHO dhfr- cells expressing human mGluR2 and Gα16; potentiation after EC20 glutamate (900 nM); read-out: Representative FLIPR EC50 Values: IC50
T1 construct: expressed in transfected cells
Procedure: Inhibition constants are determined as follows. The compounds of the present invention may be tested in a fluorescence laser imaging plate reader (FLIPR) based assay. This assay is a common functional assay to monitor Ca^2+ mobilization in whole cells expressing recombinant receptor coupled with a promiscuous G-protein. CHO dhfr− cells stably expressing recombinant human mGluR2 and Gα16 loaded with Fluo-4 AM (Invitrogen, Carlsbad Calif.) are treated with dose responses of compounds and the Ca^2+ response is monitored on a FLIPR384 (Molecular Devices, Sunnydale Calif.) for agonist activity. The potentiation response is monitored after a subsequent addition of an EC20 concentration of glutamate (900 nM). The maximum calcium response at each concentration of compound for agonist or potentiation are plotted as dose responses and the curves are fitted with a four parameters logistic equation giving EC50 and Hill coefficient using the iterative non linear curve fitting software program.

T1 sequence (Q14416 19-872): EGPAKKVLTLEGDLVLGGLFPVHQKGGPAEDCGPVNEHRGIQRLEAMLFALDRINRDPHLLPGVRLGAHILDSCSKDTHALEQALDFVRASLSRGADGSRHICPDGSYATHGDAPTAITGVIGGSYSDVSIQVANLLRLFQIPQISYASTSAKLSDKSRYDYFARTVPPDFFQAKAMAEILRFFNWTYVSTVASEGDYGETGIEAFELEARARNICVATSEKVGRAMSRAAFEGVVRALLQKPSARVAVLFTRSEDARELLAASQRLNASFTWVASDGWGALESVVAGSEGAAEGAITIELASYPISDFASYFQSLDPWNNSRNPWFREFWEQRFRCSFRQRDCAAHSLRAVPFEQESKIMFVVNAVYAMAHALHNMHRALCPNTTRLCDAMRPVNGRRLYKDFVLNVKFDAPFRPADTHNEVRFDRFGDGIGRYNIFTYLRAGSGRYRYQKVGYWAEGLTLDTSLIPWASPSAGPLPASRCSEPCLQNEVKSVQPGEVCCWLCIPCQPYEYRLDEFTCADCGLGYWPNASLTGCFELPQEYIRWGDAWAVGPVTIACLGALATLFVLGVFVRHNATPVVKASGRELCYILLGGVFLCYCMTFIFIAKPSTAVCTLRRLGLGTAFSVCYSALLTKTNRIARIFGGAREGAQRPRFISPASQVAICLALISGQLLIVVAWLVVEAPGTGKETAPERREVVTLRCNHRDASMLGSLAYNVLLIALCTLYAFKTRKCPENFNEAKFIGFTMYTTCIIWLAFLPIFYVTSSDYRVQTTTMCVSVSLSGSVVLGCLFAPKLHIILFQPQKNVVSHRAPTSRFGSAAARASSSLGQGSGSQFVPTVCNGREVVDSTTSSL

SMILES	EC50 [nM]
CN1c2cc(-c3cc(Oc4ccnc(C#N)c4)ccc3C#N)ccc2N(CC2CC2(F)F)S1(=O)=O (stereo not drawn) [Compound 12-4, 4-(4-cyano-3-{1-[(2,2-difluorocyclopropyl)methyl]-3-methyl-2,2-dioxido-1,3-dihydro-2,1,3-benzothiadiazol-5-yl}phenoxy) pyridine-2-carbonitrile]	0.5
CN1c2cc(-c3ccccc3C#N)ccc2N(CC2CC2)S1(=O)=O [Compound 1-5, 2-[1-(cyclopropylmethyl)-3-methyl-2,2-dioxido-1,3-dihydro-2,1,3-benzothiadiazol-5-yl]benzonitrile]	5
CN1c2cc(-c3cccc(CNc4ncccc4C#N)c3)ccc2N(CC2CC2)S1(=O)=O [Compound 24-1, 2-({3-[1-(cyclopropylmethyl)-3-methyl-2,2-dioxido-1,3-dihydro-2,1,3-benzothiadiazol-5-yl]benzyl}amino)nicotinonitrile]	130
CN1c2cc(-c3cccc(N4CCS(=O)(=O)CC4)c3)ccc2N(CC2CCC2)S1(=O)=O [Compound 8-1, 1-(cyclobutylmethyl)-5-[3-(1,1-dioxidothiomorpholin-4-yl)phenyl]-3-methyl-1,3-dihydro-2,1,3-benzothiadiazole 2,2-dioxide]	110
CN1c2cc(-c3cc(C(C)(C)O)ccc3F)ccc2N(CC2CC2(F)F)S1(=O)=O (stereo not drawn) [Compound 17-2]	22
CN1c2cc(-c3cc(CN4CCc5onc(O)c5C4)ccc3C#N)ccc2N(CC2CC2(F)F)S1(=O)=O (stereo not drawn) [Compound 20-1, 2-{1-[(2,2-difluorocyclopropyl)methyl]-3-methyl-2,2-dioxido-1,3-dihydro-2,1,3-benzothiadiazol-5-yl}-4-[(3-hydroxy-6,7-dihydroisoxazolo[4,5-c]pyridin-5(4H)-yl)methyl]benzonitrile]	0.8
Cc1cccnc1-c1ccc2c(c1)N(C)S(=O)(=O)N2CC1CC1 [Compound 3-1, 1-(cyclopropylmethyl)-3-methyl-5-(3-methylpyridin-2-yl)-1,3-dihydro-2,1,3-benzothiadiazole 2,2-dioxide]	490

More lines, now with the values ahead:

EC50 [nM]	SMILES
140	CN1c2nc(-c3ccc(N4CCN(S(C)(=O)=O)CC4)cc3)ccc2N(CC2CC2(F)F)S1(=O)=O (stereo not drawn) [Compound 32-2, 1-[(2,2-difluorocyclopropyl)methyl]-3-methyl-5-{4-[4-(methylsulfonyl)piperazin-1-yl]phenyl}-1,3-dihydro[1,2,5]thiadiazolo[3,4-b]pyridine 2,2-dioxide]
25	Cc1ccc(C(C)(C)O)cc1-c1ccc2c(n1)N(C)S(=O)(=O)N2CC1CC1 [Compound 38-3, 2-{3-[1-(cyclopropylmethyl)-3-methyl-2,2-dioxido-1,3-dihydro [1,2,5]thiadiazolo[3,4-b]pyridin-5-yl]-4-methylphenyl}propan-2-ol]
9	CN1c2nc(-c3cccc(CN4CCS(=O)(=O)CC4)c3F)ccc2N(CC2CC2(F)F)S1(=O)=O (stereo not drawn) [Compound 42-3, 1-[(2,2-difluorocyclopropyl)methyl]-5-{3-[(1,1-dioxidothiomorpholin-4-yl)methyl]-2-fluorophenyl}-3-methyl-1,3-dihydro [1,2,5]thiadiazolo[3,4-b]pyridine 2,2-dioxide]
11	CC(=O)N1CCN(Cc2ccc(C)c(-c3ccc4c(n3)N(C)S(=O)(=O)N4CC3CC3(F)F)c2)CC1 (stereo not drawn) [Compound 39-2, 1-[4-(3-{1-[(2,2-difluorocyclopropyl)methyl]-3-methyl-2,2-dioxido-1,3-dihydro[1,2,5]thiadiazolo[3,4-b]pyridin-5-yl}-4-methylbenzyl)piperazin-1-yl]ethanone]
3	CN1c2nc(-c3cc(Oc4ccnc(C#N)c4)ccc3C#N)ccc2N(CC2CC2(F)F)S1(=O)=O (stereo not drawn) [Compound 36-2, 4-(4-cyano-3-{1-[(2,2-difluorocyclopropyl)methyl]-3-methyl-2,2-dioxido-1,3-dihydro[1,2,5]thiadiazolo[3,4-b]pyridin-5-yl}phenoxy)pyridine-2-carbonitrile]
8	Cc1ccc(CN2CCN(C(=O)[C@@H](C)O)CC2)cc1-c1ccc2c(n1)N(C)S(=O)(=O)N2CC1CC1(F)F (stereo partly drawn) [Compound 43-3, (2R)-1-[4-(3-{1-[(2,2-difluorocyclopropyl)methyl]-3-methyl-2,2-dioxido-1,3-dihydro[1,2,5]thiadiazolo[3,4-b]pyridin-5-yl}-4-methylbenzyl)piperazin-1-yl]-2-hydroxypropan-1-one]
9	CN1c2nc(-c3ccccc3C#N)ccc2N(CC(C)(C)C)S1(=O)=O [Compound 30-2, 2-[1-(2,2-dimethylpropyl)-3-methyl-2,2-dioxido-1,3-dihydro[1,2,5]thiadiazolo[3,4-b]pyridin-5-yl]benzonitrile]
24	CN1c2cc(-c3cccc(CN4CCN(S(C)(=O)=O)CC4)n3)ccc2N(CC2CC2(F)F)S1(=O)=O (stereo not drawn) [Compound 25-2]
